Assay results: PubChem BioAssay AID1581
Records with an inconclusive call do not appear.

target: PAR-4 (PAWR) - atypical PKC interaction; assay: inhibitors of PAWR-atypical PKC interaction (AID 1581); conditions: PAR4-aPKC protein interaction assay, normalized signal

Compound | EC50 [µM]
N[C@@H](Cc1ccc(O)c(O)c1)C(=O)O | 13
O=c1c(O)c(-c2ccc(O)cc2O)oc2cc(O)cc(O)c12 | 10
C=Cc1c(C)c2cc3[nH]c(cc4nc(cc5nc(cc1[nH]2)C(C)=C5CCC(=O)O)C(CCC(=O)O)=C4C)c(C)c3C=C | 14
O=c1c(O)cc2c(O)oc3c(=O)c(O)cc4c3c2c1CC=4O | 21
CO[C@@]1(NC(=O)C(C(=O)O)c2ccc(O)cc2)C(=O)N2C(C(=O)O)=C(CSc3nnnn3C)CO[C@@H]21 (some centres not stated) | 11
O=C1C=CC(=O)c2c(O)cccc21 | 18
NC[C@H](O)c1ccc(O)c(O)c1 | 29
